Experimental data published in patent US9101567B2, “Suppression of cancer growth and metastasis using nordihydroguaiaretic acid derivatives with 7-hydroxystaurosporine” (The Johns Hopkins University, priority 2010, dated 2015).

Assays:
Format in all cases: cell-based, human
caspase-3 or 9 = test: Western blotting of caspase-3 and 9 cleavage in HepG2 cells; conditions: HepG2, 17 hrs; M4N 80 μM, UCN-01 5 μM
Procedure: After cells had been grown in […] flasks and treated with reagents, the cells were washed with PBS (−) three times and suspended in RIPA buffer (150 mM NaCl, 50 mM Tris-HCl (pH 8.0), 0.1% SDS, 1% NP40, and 0.5% deoxycholate) supplemented with protease inhibitor cocktail (Calbiochem, San Diego, Calif.). The sample volumes were adjusted by the total protein amount. Protein assay was performed by Bio-Rad Protein Assay (Bio-Rad Laboratories, Inc. Hercules, Calif.). The samples were resolved by the standard SDS-polyacrylamide gel electrophoresis and transferred to nitrocellulose membrane (Amersham Biosciences, Bjorkgatan, Sweden). […] The signals were detected by western blot chemiluminescence reagent plus (New England Nuclear Life Science Products, Boston, Mass.).
The effect of the combination treatments on cell death and autophagy was examined in two cell lines other than LNCaP cells. […] On the contrary caspase-7 cleavage was detected in MCF-7 cells treated with UCN-01 treatment alone, the combination treatments of M4N with either etoposide or UCN-01 (FIG. 4C). […] On the contrary a great deal of caspase-7 cleavage product was detected in HepG2 cells treated with UCN-01 or the combination treatment of M4N with UCN-01 while a small amount of caspase-7 cleavage product was detected in the cells treated with etoposide or rapamycin regardless of a concomitant treatment with M4N (FIG. 4C).

caspase-7 = test: Western blotting of caspase-7 cleavage in HepG2 cells; conditions: HepG2, 17 hrs; M4N 80 μM, etoposide 20 μM, rapamycin 20 μM, UCN-01 5 μM
Procedure: The sample volumes were adjusted by the total protein amount. Protein assay was performed by Bio-Rad Protein Assay (Bio-Rad Laboratories, Inc. Hercules, Calif.). The samples were resolved by the standard SDS-polyacrylamide gel electrophoresis and transferred to nitrocellulose membrane (Amersham Biosciences, Bjorkgatan, Sweden). The membranes were blocked with skim milk, and incubated with primary antibodies at 4° C. overnight and then with secondary antibody conjugated with horse radish peroxidase at room temperature for 2 hrs. The signals were detected by western blot chemiluminescence reagent plus (New England Nuclear Life Science Products, Boston, Mass.).
The effect of the combination treatments on cell death and autophagy was examined in two cell lines other than LNCaP cells.

Beclin-1 = test: Western blotting of Beclin-1 in LNCaP cells; conditions: normoxic or hypoxic, 6 or 18 hr, M4N 80 μM
Procedure: The sample volumes were adjusted by the total protein amount. Protein assay was performed by Bio-Rad Protein Assay (Bio-Rad Laboratories, Inc. Hercules, Calif.). The samples were resolved by the standard SDS-polyacrylamide gel electrophoresis and transferred to nitrocellulose membrane (Amersham Biosciences, Bjorkgatan, Sweden). The membranes were blocked with skim milk, and incubated with primary antibodies at 4° C. overnight and then with secondary antibody conjugated with horse radish peroxidase at room temperature for 2 hrs. The signals were detected by western blot chemiluminescence reagent plus (New England Nuclear Life Science Products, Boston, Mass.). BNIP3 is a member of Bcl-2 family proteins which sends pro-apoptotic signal to mitochondria and induces mitochondrial membrane potential depolarization. […] This implies that BNIP3 is involved in autophagy as well as cell death. […] Since BNIP3 is known to be activated more under hypoxic conditions (24), BNIP3 expression was examined in both normoxic and hypoxic conditions (FIGS. 3A&B). […] Previously it was shown that BNIP3 expression is augmented by hypoxia through both […] (HIF)1α-dependent and nondependent pathways (24).

HIF1α = test: Western blotting of HIF1α in LNCaP cells under hypoxia; conditions: M4N 80 μM
From the text: LNCaP human prostate cancer, DU145 human prostate cancer, PC3 human prostate cancer, MCF-7 human breast cancer, MDA-MB-231 human breast cancer, MDA-MB-468 human breast cancer, HT29 human colon cancer, K562 human myelogenous leukaemia, HepG2 human hepatoma, Hep3B human hepatoma, and LN229 human glioblastoma cancer cell lines were purchased from American Type Culture Collection (Manassas, Va.). OC24 human ascites ovarian cancer cell line was a generous gift from Dr. XXX (Johns Hopkins University, MD). LNCaP cell line was cultured in RPMI1640 medium supplemented with glucose (14 mM), pyruvate (1 mM), and fetal bovine serum (FBS) (10%). DU145 cell line was cultured in MEM supplemented with non-essential amino acids, glucose (21 mM), pyruvate (1 mM), and FBS (10%). PC3 cell line was cultured in F-12K medium supplemented with FBS (10%). MCF-7 cell line was cultured in DMEM supplemented with FBS (10%). OC24 cell line was cultured in RPMI1640 medium supplemented with FBS (10%) as suspension culture. MDA-MB-231 and 468 cell lines were cultured in Leibovitz's L15 medium supplemented with FBS (10%) under air. HT29 cell line was cultured in DMEM supplemented with glucose (25 mM) and FBS (10%). K562 cell line was cultured in RPMI1640 supplemented with FBS (10%). […] The signals were detected by western blot chemiluminescence reagent plus (New England Nuclear Life Science Products, Boston, Mass.). […]

SMILES | caspase-3 cleaved product (caspase-3 or 9) | caspase-7 cleavage product (caspase-7) | Beclin-1 expression (Beclin-1) | HIF1α expression (HIF1α; 6 hr exposure to hypoxia) | HIF1α expression (HIF1α; 18 hr exposure to hypoxia)
CN[C@@H]1C[C@H]2O[C@@](C)([C@@H]1OC)n1c3ccccc3c3c4c(c5c6ccccc6n2c5c31)C(=O)N[C@H]4O [UCN-01, 7-hydroxystaurosporine] | small amount | great deal |  |  | 
COc1ccc(C[C@@H](C)[C@@H](C)Cc2ccc(OC)c(OC)c2)cc1OC [M4N, Tetra-O-methyl nordihyroguaiaretic acid] |  |  | not affected | did not have much effect | reduced HIF1α expression
